# What was measured:
# [1] = tested on: VRE; assay: Multiple dose study in asymptomatic carriers of intestinal VRE; assay type: in vivo, human; settings: for patients with no detectable VRE, number / patients with no detectable VRE: Day 7; for patients with no detectable VRE: rectal swab; for patients VRE free: Day 14 (seven days after cessation); for patients VRE free, number: Day 14
# Procedure: Patients identified as asymptomatic carriers of VRE were administered placebo or one of two dosages (100 mg, 400 mg) of ramoplanin b.i.d. (twice daily) for seven days. Patients were assessed by rectal swab on Days 7, 14, and 21 to determine the presence or absence of VRE. On Days 45 and 90, stool samples were analyzed for long-term effects of ramoplanin on the recurrence of, or re-infection with, VRE. All VRE isolates were tested for susceptibility to ramoplanin.
# [2] = tested on: VRE; assay: MIC against VRE, NCCLS broth microdilution; assay type: cell-based; settings: all VRE in this study cultured in CAMHB
# Procedure: (§1) The efficacy of ramoplanin was tested against recently isolated VRE that are resistant to linezolid and quinupristin/dalfopristin. The culture media containing ramoplanin was supplemented with 0.02% bovine serum albumin (BSA) to prevent ramoplanin binding to the plastic. MIC values were determined in both cation-adjusted Mueller-Hinton broth (CAMHB) and trypticase soy broth (TSB) by the National Committee for Clinical Laboratory Standards (NCCLS) broth microdilution method. Macromolecular biosynthesis experiments were done by following the incorporation of carbon-14-labeled N-acetylglucosamine, acetic acid, amino acids, uridine, and thymidine into peptidoglycan, fatty acid, protein, RNA and DNA, respectively.
# [3] = Single dose study in healthy male volunteers: absorption and fecal recovery; assay type: in vivo, human
# Procedure: The absorption, tolerability, and recovery of ramoplanin following single dose oral administration were investigated in male volunteers. Ramoplanin was administered as an aqueous solution at a dose of 100, 200, 500, or 1000 mg to fasting subjects. Serum samples were obtained prior to drug administration of ramoplanin and 0.5, 1, 2, 3, 6, 9, 12, 24, 48, 72, and 96 hours after treatment. Urine samples were collected prior to administration of ramoplanin and over the periods 0-3, 3-6, 6-12, 12-24, 24-48, 48-72, and 72-96 hours after dosing. Fecal samples were collected prior to dosing and over the periods 0-16 (Day 1), 16-40 (Day 2), 40-64 (Day 3), 64-88 (Day 4), and 88-96 (Day 5) hours after dosing. A microbiological assay employing Bacillis subtilis ATCC 6633 as the test organism was used to determine ramoplanin concentrations in serum, urine, and feces. The limits of quantitation for this assay were 0.02 μg/mL in serum, 0.012 μg/mL in urine, and 3 μg/g in feces. Tolerability was assessed on the basis of clinical signs and symptoms and the results of blood and urine laboratory tests.
# [4] = tested on: VRE; assay: Time-kill studies against VRE; assay type: cell-based
# [5] = In vitro interaction of ramoplanin with human intestinal contents
# Description: The in vitro interaction of ramoplanin with human intestinal contents was studied. […] The binding and the subsequent release of ramoplanin from feces would likely result in long-lasting concentrations in the intestinal tract.
# [6] = Multiple dose study in healthy male volunteers: absorption and fecal concentrations; assay type: in vivo, human
# Procedure: (§2) Healthy male volunteers were administered 200, 400, or 800 mg ramoplanin twice-a-day, for ten consecutive days. The predetermined dose was reconstituted in 5 mL water per vial, mixed with 50 mL of sweetened, aromatized solution, and immediately administered orally to the subjects.
# No absorption from the human gastrointestinal tract was observed.
# [7] = Oral formulation study: ramoplanin in feces, plasma and urine; assay type: in vivo, human; settings: 400 mg b.i.d. seven days
# Procedure: To further elucidate the pharmacodynamics and intestinal bioavailability, healthy male volunteers (18-45 years; BMI—19-29 kg/m^2) were administered oral ramoplanin (400 mg b.i.d.) for seven days and fecal Enterococci were monitored. Ramoplanin was administered to six subjects as a granulated powder admixed with Orasweet® syrup vehicle.
# [8] = tested on: Clostridium spp.; assay: Multiple dose study: activity on stool microflora, Clostridium; assay type: in vivo, human
# Procedure: as §2
# (§3) The antibacterial activity of ramoplanin on the stool microflora was assessed in a subset of the subjects. Microbial concentrations (i.e., the number of organisms per gram of fecal matter) were determined at the following time points: Day-4 (pre-treatment), Days 4 and 10 (treatment), and Days […] and 24 (follow-up). Tolerability and absorption were also investigated.
# [9] = tested on: Gram-negative bacteria (enteric bacteria and Bacteroides spp.) or yeast; assay: Multiple dose study: activity on stool microflora, Gram-negative bacteria and yeast; assay type: in vivo, human; settings: healthy male volunteers, oral 200, 400, 800 mg B.I.D. 10 days
# Procedure: as §2, §3
# [10] = tested on: peptidoglycan synthesis; assay: Macromolecular biosynthesis (carbon-14 precursor incorporation); assay type: cell-based; settings: ramoplanin at the MIC
# Procedure: as §1
substance,measurement,setting,value
Ramoplanin,"patients with no detectable VRE, number",[1]; 100 mg b.i.d. for seven days,17 of 21
same,patients with no detectable VRE,[1]; 100 mg b.i.d. for seven days,81.0%
same,"patients with no detectable VRE, number",[1]; 400 mg b.i.d. for seven days,18 of 20
same,patients with no detectable VRE,[1]; 400 mg b.i.d. for seven days,90.0%
same,patients VRE free,[1]; 100 mg b.i.d.,28.6%
same,patients VRE free,[1]; 400 mg b.i.d.,41.2%
same,"patients VRE free, number",[1]; 100 mg b.i.d.,6 of 21
same,"patients VRE free, number",[1]; 400 mg b.i.d.,7 of 17
same,number of VRE-free patients,[1]; Day 21,comparable among all treatment groups
same,MIC,[2],0.125 to 0.25 µg/mL
same,subjects with ramoplanin still detectable in feces,"[3]; fourth day of study, single oral dose",17 of 24
same,ramoplanin in serum/plasma or urine,"[3]; healthy male volunteers, single oral doses up to 1000 mg and multiple oral doses 200, 400, 800 mg B.I.D. 10 days, bioassay and HPLC",not detected
same,Mean cumulative recovery of ramoplanin in feces,[3]; single oral dose 100 mg,67.7 % of the administered dose
same,Mean maximum concentration in feces,[3]; single oral dose 100 mg,214 µg/g
same,"cumulative recovery of ramoplanin in feces, range",[3]; single oral dose 100 mg,55.7-84 % of the administered dose
same,"maximum concentration in feces, range",[3]; single oral dose 100 mg,148 to 278 µg/g
same,Mean cumulative recovery of ramoplanin in feces,[3]; single oral dose 200 mg,48.5 % of the administered dose
same,Mean maximum concentration in feces,[3]; single oral dose 200 mg,287 µg/g
same,"cumulative recovery of ramoplanin in feces, range",[3]; single oral dose 200 mg,39.3-56.5 % of the administered dose
same,"maximum concentration in feces, range",[3]; single oral dose 200 mg,164 to 454 µg/g
same,Mean cumulative recovery of ramoplanin in feces,[3]; single oral dose 500 mg,52.8 % of the administered dose
same,Mean maximum concentration in feces,[3]; single oral dose 500 mg,1655 µg/g
same,"cumulative recovery of ramoplanin in feces, range",[3]; single oral dose 500 mg,41.3-79.6 % of the administered dose
same,"maximum concentration in feces, range",[3]; single oral dose 500 mg,737 to 3316 µg/g
same,Mean cumulative recovery of ramoplanin in feces,[3]; single oral dose 1000 mg,46.4 % of the administered dose
same,Mean maximum concentration in feces,[3]; single oral dose 1000 mg,1835 µg/g
same,"cumulative recovery of ramoplanin in feces, range",[3]; single oral dose 1000 mg,39.9-58.4 % of the administered dose
same,"maximum concentration in feces, range",[3]; single oral dose 1000 mg,1336 to 3154 µg/g
same,time of maximum ramoplanin concentration and maximum percentage recovery in feces,[3]; single oral dose 100-1000 mg,the day after administration (Day 2)
same,time-kill activity,[4],bactericidal activity
same,binding to feces,[5],bind reversibly to solid components of feces
same,microbiological activity in feces,[5],microbiologically active in feces
same,absorption from the human gastrointestinal tract,"[6]; 200, 400 or 800 mg twice-a-day, ten days",No absorption
same,urine levels of ramoplanin,[6]; Day 1 and 5 and pooled urine up to 72-96 after the last dose,No levels were found in urine
same,average fecal concentration of ramoplanin,"[6]; Day 3, 200 mg twice-a-day",827 µg/g
same,average fecal concentration of ramoplanin,"[6]; Day 3, 400 mg twice-a-day",1742 µg/g
same,average fecal concentration of ramoplanin,"[6]; Day 3, 800 mg twice-a-day",1901 µg/g
same,average fecal concentration of ramoplanin,"[6]; Day 10, 200 mg twice-a-day",949 µg/g
same,average fecal concentration of ramoplanin,"[6]; Day 10, 400 mg twice-a-day",1417 µg/g
same,average fecal concentration of ramoplanin,"[6]; Day 10, 800 mg twice-a-day",2647 µg/g
same,serum levels of ramoplanin,"[6]; Days 1, 5 and 10, hour 0.5-12 after the morning dose",no serum levels of ramoplanin were detected
same,fecal concentrations post-treatment,[6]; four days post-treatment,remained detectable in some subjects
same,cumulative recovery in feces,[6]; up to Day 4 post-treatment,25 % of the administered dose
same,fecal ramoplanin concentration,[7],0.56 to 2.65 mg/g
same,ramoplanin concentration in plasma or urine,[7]; any subject,No measurable ramoplanin concentration was detected
same,subjects with Clostridium spp. concentration reduced below detectable levels,"[8]; multiple dose study, stool microflora subset",10 of 12
same,clostridial load,[8]; two subjects carrying ramoplanin- and vancomycin-resistant Clostridium spp. (C. rectum and C. beijerinckii) before treatment,no variation
same,effect on Gram-negative flora / yeast in stool,[9],not effective
same,effect on Gram-negative flora / yeast in stool,[9]; listed as ramoplanin,no effect
same,first macromolecular biosynthetic pathway inhibited,[10],peptidoglycan synthesis
